{
  "source": "ChEMBL document CHEMBL1159021",
  "about": "“Antitumor agents, 127. Bruceoside C, a new cytotoxic quassinoid glucoside, and related compounds from Brucea javanica” (1992)",
  "assay_type_in_all_cases": "functional",
  "conditions_in_all_cases": "read-out: ED50 (the source's name)",
  "key": {"HCT-8": {"system": "HCT-8", "assay": "Cytotoxicity against human HCT8 cells"}, "[1]": {"assay": "Cytotoxicity against human RPMI cells"}, "A549": {"system": "A549", "assay": "Cytotoxicity against human A549 cells"}, "KB": {"system": "KB", "assay": "Cytotoxicity against human KB cells"}, "TE-671": {"system": "TE-671", "assay": "Cytotoxicity against human TE671 cells"}, "P388": {"system": "P388", "assay": "Cytotoxicity against mouse P388 cells"}},
  "data": [
    {"smiles": "COC(=O)[C@@]12OC[C@]34[C@H](OC(=O)C[C@@H]13)[C@H](OC(=O)C=C(C)C)[C@H]1C(C)=C(O[C@@H]3O[C@H](CO)[C@@H](O)[C@H](O)[C@H]3O)C(=O)C[C@]1(C)[C@H]4[C@@H](O)[C@@H]2O", "note": "[BRUCEOSIDE C]", "values": [
      {"measurement": "EC50", "setting": "HCT-8", "result": 4.51, "unit": "µg/mL"},
      {"measurement": "EC50", "setting": "[1]", "result": "< 0.1", "unit": "µg/mL"},
      {"measurement": "EC50", "setting": "A549", "result": 0.44, "unit": "µg/mL"},
      {"measurement": "EC50", "setting": "KB", "result": "< 0.1", "unit": "µg/mL"},
      {"measurement": "EC50", "setting": "TE-671", "result": 0.29, "unit": "µg/mL"},
      {"measurement": "EC50", "setting": "P388", "result": 5.11, "unit": "µg/mL"}
    ]}
  ]
}
